Test system: SARS-CoV-2 (Delta variant, pangolin linage B.1.617.2)
Test: microbe, parasite or virus in culture
Assay type: cell-based

Row | SMILES | Inhibition of SARS-CoV-2 infection in Calu-3 cells (0.01 µM) [%] | inhibition at 0.01 µM (Severe acute respiratory syndrome coronavirus 2, Calu-3, 24 h, read-out: Inhibition of SARS-CoV-2 infection in Calu-3 cells) [%]
1 | Cc1sc2c(c1C)C(c1ccc(Cl)cc1)=N[C@@H](CC(=O)OC(C)(C)C)c1nnc(C)n1-2 [JQ1] | 72 | –
2 | Cc1sc2c(c1C)C(c1ccc(Cl)cc1)=N[C@@H](CC(=O)Nc1ccc(O)cc1)c1nnc(C)n1-2 [OTX015] | – | 69
